Several values for one entry are separate records, joined by “and”; a condition that tells them apart may be missing. Equal entries are not always repeated.

A word on the melting point: it is the temperature of the solid-liquid transition. On to `BrCC(Br)(Br)CBr` [1,2,2,3-tetrabromopropane], for which the melting point amounted to 11 °C.
In the case of `CC(C)CC1=C/C(=C/c2ccc(-c3ccc(Br)cc3)o2)C(=O)O1` it was 108 °C.
Then `C1CCCCCCCCCCC1` [cyclododecane], with 61 °C.
Then `O=C(O)c1cc(O)ccc1O` [2,5-dihydroxybenzoic_acid], with 205 °C; and `O=C(O)C(F)(F)C(F)(F)C(F)(F)C(F)(F)C(F)(F)C(F)(F)C(F)(F)C(F)(F)F` [Heptadecafluorononanoic acid], with 66.5 °C.
For the compound `Cc1ccccc1N1C(=O)c2cc(S(N)(=O)=O)c(Cl)cc2NC1C` (configuration not stated) [metolazone], the melting point was 252 °C.
Then `CC(=O)CC(C)=O` [Pentane-2,4-dione], with -23 °C; and `ClCC(Cl)Cl` [1,1,2-Trichloroethane], with -35 °C.
For the compound `O=Cc1ccc(B(O)O)cc1` [4-formylbenzeneboronic acid], the melting point worked out at 263 °C.
As to `OB(O)c1ccc(F)cc1F` [2,4-difluorobenzeneboronic acid], the melting point came to 249 °C.
Then `C=C1[C@@H]2CC[C@@H](C2)C1(C)C` [camphene], with 35 °C; and `Brc1cccc2ccccc12` [1-bromonaphthalene], with -1 °C; and `N[C@@H](Cc1ccc(O)c(O)c1)C(=O)O` [l-dopa], with 277 °C.
For `CCOC(C)(C)C` [2-Ethoxy-2-methylpropane], the melting point is -94 °C.
Then `O=C(Cl)OCC1c2ccccc2-c2ccccc21` [9-fluorenylmethyl chloroformate], with 62 °C.
Then `COc1ccccc1OC` [veratrole], with 22 °C; and `N#CCC(N)=O` [cyanoacetamide], with 120 °C.
`O=C(O)c1ccccc1O` [Salicyclic acid]: the melting point was 158 °C.
For the compound `C=C(F)Cl` [1-Chloro-1-fluoroethene], the melting point was -169 °C.
For `CC(=O)OC1CCC2C3CCC4=CC(=O)CCC4(C)C3CCC12C` (configuration not stated) [3-oxoandrost-4-en-17-yl acetate], the melting point stood at 140 °C.
Then `Cn1c(=O)c2c(ncn2C)n(C)c1=O` [caffeine], with 238 °C; and `COC(=O)c1cccc(C(=O)OC)n1` [dimethyl pyridine-2,6-dicarboxylate], with 121 °C.
In the case of `COC(=O)CCC(C)C1CCC2C3CCC4CC(=O)CCC4(C)C3CC(=O)C12C` (configuration not stated) [methyl 3,12-dioxocholan-24-oate] it was 130 °C; in that of `O=C1OC(=O)[C@H]2[C@@H]1[C@@H]1C=C[C@H]2O1` [exo-7-oxabicyclo[2.2.1]hept-5-ene-2,3-dicarboxylic anhydride], 119 °C.
In the case of `Nc1ccc(Cl)cc1[N+](=O)[O-]` [4-chloro-2-nitroaniline], the melting point was found to be 118 °C.
The compound `Cc1noc(NS(=O)(=O)c2ccc(N)cc2)c1C` [4-Amino-N-(3,4-dimethyl-1,2-oxazol-5-yl)benzenesulfonamide] gave a melting point of 196 °C.
Then `BrCC(Br)Br` [1,1,2-tribromoethane], with -29 °C; and `Cc1ccc(C(N)=O)cc1` [p-toluamide], with 163 °C.
`N/N=C/c1ccccc1O` [salicylaldehyde hydrazone] registered a melting point of 97 °C.
Then `CCCCCCCCCCCO` [1-undecanol], with 16 °C and 14 °C; and `Cc1cc(NS(=O)(=O)c2ccc(N)cc2)nc(C)n1` [Sulfisomidine], with 243 °C; and `O=c1[nH]cnc2c1ncn2[C@H]1CC[C@@H](CO)O1` [didanosine], with 162 °C.
The compound `C[C@H](CCC(=O)O)[C@H]1CC[C@H]2[C@@H]3[C@@H](O)C[C@@H]4C[C@H](O)CC[C@]4(C)[C@H]3CC[C@]12C` [ursodeoxycholic acid] gave a melting point of 203 °C.
In the case of `NCc1ccc2c(Br)cccc2c1` [1-(5-bromonaphthalen-2-yl)methanamine] it was 112 °C.
`COc1ccc(N=C(CNc2ccc(OC)cc2)Nc2ccc(OC)cc2)cc1` yielded a melting point of 159 °C.
Then `Cc1ccc(C)c(C)c1` [1,2,4-Trimethylbenzene], with -43.8 °C; and `O=C1CSC(=S)N1c1ccccc1` [4-thiazolidinone, 3-phenyl-2-thioxo-], with 240 °C; and `Cn1ccc(=O)n(C)c1=O` [1,3-dimethyluracil], with 121 °C.
In the case of `O=C(O)c1c2ccccc2cc2ccccc12` [Anthracene-9-carboxylic acid] it was 213 °C.
In the case of `CCC(=O)O` [propionic acid] it was -21 °C; in that of `CC(=O)Oc1ccccc1C(=O)O` [aspirin], 142 °C; in that of `OCc1ccccc1` [benzyl alcohol], -15 °C.
Turning to `CCC(C)CC` [3-methylpentane], the melting point is -118 °C.
On to `O=C1Cc2cccc(Br)c21` [5-bromobicyclo[4.2.0]octa-1,3,5-trien-7-one], for which the melting point worked out at 82 °C.
The compound `Cc1ccc([N+](=O)[O-])cc1N` [2-Methyl-5-nitroaniline] gave a melting point of 108 °C.
Compound `O=C1OC(c2ccc(O)c3ccccc23)(c2ccc(O)c3ccccc23)c2ccccc21` [alpha-naphtholphthalein] registered a melting point of 239 °C.
Then `O=Cc1c(Cl)cccc1Cl` [2,6-dichlorobenzaldehyde], with 71 °C.
Then `O=[N+]([O-])c1cccc2cccc(/C=N/c3ccccc3)c12` [N-[(1E)-(8-nitronaphthalen-1-yl)methylidene]aniline], with 115 °C; and `C[C@]12CC[C@@H]3O[C@@H]3[C@H]1CC[C@@H]1[C@@H]2CC[C@]2(C)C(=O)CC[C@@H]12` [(3beta,4beta,5beta)-3,4-Epoxyandrostan-17-one], with 136 °C.
With `c1ccc2c(c1)Cc1cc3ccccc3cc1-2` [2,3-benzofluorene], the melting point came to 210 °C.
In the case of `O=c1c2ccccc2sc2ccccc12` [9H-Thioxanthen-9-one] it was 209 °C; in that of `CCNCCO` [2-(ethylamino)ethanol], -9 °C; in that of `C#CC1(O)CCC2C3CCc4cc(O)ccc4C3CCC21C` (configuration not stated) [ethinylestradiol], 141 °C.
Regarding `Cc1cc(=O)oc2cc(O)ccc12` [4-methylumbelliferone], the melting point stood at 189 °C.
On to `CN(C)c1ccc(CNC2=CC(=O)c3ccccc3C2=O)cc1` [2-{[4-(dimethylamino)benzyl]amino}naphthalene-1,4-dione], for which the melting point was determined as 166 °C.
Then `Cc1cc(Br)ccc1N=C=S` [4-bromo-2-methylphenyl isothiocyanate], with 45 °C.
Then `Cc1cccc(N)c1N` [2,3-diaminotoluene], with 58 °C; and `Oc1ccc2ccccc2c1` [2-naphthol], with 122 °C; and `CN(C)C=O` [N,N-dimethylformamide], with -61 °C.
As to `O=C1CCN(c2ccccc2)N1` [1-Phenylpyrazolidin-3-one], the melting point turned out to be 122 °C.
Then `COc1cccc(OC)c1P(c1c(OC)cccc1OC)c1c(OC)cccc1OC` [tris(2,6-dimethoxyphenyl)phosphine], with 146 °C; and `COCCOCCOC` [diethylene glycol dimethyl ether], with -64 °C; and `Cc1n[nH]cc1-c1ccccc1` [3-methyl-4-phenyl-1h-pyrazole], with 142 °C.
Compound `Brc1ccccc1I` [o-bromoiodobenzene] showed a melting point of 10 °C.
As to `CCCCCC(O)CC` (configuration not stated) [3-octanol], the melting point was -45 °C.
Then `Cc1ccc2c(c1)no[n+]2[O-]` [5-Methylbenzofurazan oxide], with 96 °C.
With `COc1ccc(C(=O)/C=C/c2ccc(-c3ccccc3OC)o2)cc1OC`, the melting point turned out to be 145 °C.
Consider `COc1ccc2c(C(=O)c3ccc(Cl)cc3)c(C)n(CC(=O)O)c2c1` [clometacin], for which the melting point worked out at 242 °C.
`C[Si](C)(C)N[Si](C)(C)C` [hexamethyldisilazane] registered a melting point of -78 °C.
In the case of `Cc1cc(B(O)O)cnc1Cl` [6-chloro-5-methylpyridine-3-boronic acid] it was 182 °C; in that of `Cc1cccc(B(O)O)c1C` [2,3-dimethylbenzeneboronic acid], 175 °C; in that of `COc1ccc(C(=O)CC#N)cc1` [4-methoxybenzoylacetonitrile], 128 °C.
In the case of `O=C(O)C(Cl)Cl` [Dichloroacetic acid] it was 9.7 °C.
In turn, `O=C1CCC(N2C(=O)c3ccccc3C2=O)C(=O)N1` (configuration not stated) [Thalidomide] had a melting point of 270 °C.
In the case of `Nc1nc(O)nc2c1cnn2CCO` [4-amino-1-(2-hydroxyethyl)-1H-pyrazolo[3,4-d]pyrimidin-6-ol] it was 308 °C; in that of `CCCCCCC#N` [hexyl_cyanide], -63 °C; in that of `COC1(CBr)OC(COC(=O)c2ccc(C)cc2)C(OC(=O)c2ccc(C)cc2)C1OC(=O)c1ccc(C)cc1` (configuration not stated), 149 °C.
Then `COc1ccc(OC)cc1` [1,4-Dimethoxybenzene], with 58 °C; and `Cc1ccc(O)c(C)c1` [2,4-dimethylphenol], with 27 °C.
As to `COc1cc(C)ccc1O` [2-methoxy-4-methylphenol], the melting point turned out to be 6 °C.
As to `c1ccc2c(c1)ccc1cc3c(ccc4ccccc43)cc12` [Dibenz[ah]anthracene], the melting point worked out at 269 °C.
In the case of `COC(=O)c1c(Cl)c(Cl)c(C(=O)OC)c(Cl)c1Cl` [dimethyl tetrachloroterephthalate] it was 157 °C; in that of `OB(O)c1cc(C(F)(F)F)cc(C(F)(F)F)c1` [3,5-bis(trifluoromethyl)benzeneboronic acid], 222 °C.
Then `O=C1C=CC(=O)O1` [maleic anhydride], with 54 °C; and `N#Cc1cccc(CO)c1` [m-hydroxymethyl_benzonitrile], with 28 °C; and `ClCC1CO1` (configuration not stated) [epichlorohydrin], with -57.1 °C.
Regarding `C#CCCCCCCC` [1-nonyne], the melting point was -50 °C.
